# From patent US10117948B2, “Selective arylation of dichalcogenides in biomolecules” (priority 2015, dated 2018)
# Columns and labels:
# [1] = cited from earlier work
# [2] = test system: gram-positive bacteria and gram-negative bacteria; details: due to the outer cell membrane; cited from earlier work
# [3] = test system: A. baumannii Wild-type (MMX 1630, ATCC 19606); experiment: MIC screening, vancomycin vs vancomycin/peptide conjugates; assay type: cell-based; details: Acinetobacter baumannii, ATCC19606
# Text: (§1) Vancomycin was conjugated to a variety of antibacterial peptides and screened against (a) resistant strains of gram-positive bacteria and b) gram-negative bacteria. See FIG. 20, FIG. 21, FIG. 22, and Table 3.
# [4] = test system: E. faecalis VSE: QC (MMX 101, ATCC 29212); experiment: as above; assay type: cell-based; details: Enterococcus faecalis, ATCC29212
# Text: as §1
# [5] = test system: E. faecalis VRE (Van A) (MMX 486); experiment: as above; assay type: cell-based; details: Enterococcus faecalis
# Text: as §1
# [6] = test system: K. pneumoniea KPC-1 (MMX 6902, ATCC BAA-1705); experiment: as above; assay type: cell-based
# Text: as §1
# [7] = test system: K. pneumoniea PSSP (MMX 1195, ATCC 49619); experiment: as above; assay type: cell-based
# Text: as §1
# [8] = test system: E. faecalis VRE (Van B) (MMX 202, ATCC 51299); experiment: as above; assay type: cell-based; details: Enterococcus faecalis
# Text: as §1
# [9] = test system: BT-474 cells (mammary gland cancer cells); experiment: Screening of genistein antibody-drug conjugate against BT-474 cells; assay type: cell-based; details: tested as ADC of genistein
# Text: An antibody-drug conjugate (ADC) of genistein was screened against BT-474 cells (mammary gland cancer cells).
Structure (SMILES),pKa [1],activity against gram-negative bacteria [2],MIC [3],MIC [4],MIC [5],MIC [6],MIC [7],MIC [8],toxicity to cells [9]
N[C@@H](CS)C(=O)O [cysteine],8.14,,,,,,,,
CN[C@H](CC(C)C)C(=O)N[C@H]1C(=O)N[C@@H](CC(N)=O)C(=O)N[C@H]2C(=O)N[C@H]3C(=O)N[C@H](C(=O)N[C@H](C(=O)O)c4cc(O)cc(O)c4-c4cc3ccc4O)[C@H](O)c3ccc(c(Cl)c3)Oc3cc2cc(c3O[C@@H]2O[C@H](CO)[C@@H](O)[C@H](O)[C@H]2O[C@H]2C[C@](C)(N)[C@H](O)[C@H](C)O2)Oc2ccc(cc2Cl)[C@H]1O [vancomycin],,not active,> 64 µg/mL,4 µg/mL,> 64 µg/mL,> 64 µg/mL,0.25 µg/mL,16 µg/mL,
N[C@@H](C[SeH])C(=O)O [selenocysteine],5.47,,,,,,,,not toxic to cells
